{
  "source": "patent US10660318B2",
  "about": "“Non-mammalian RAS transgenic animal model” (Tosk, Inc., priority 2013, dated 2020)",
  "test_system": "mutated kRAS/kRAS x MS1096 fly (human kRAS G12V expressed in the wing)",
  "assay": "Screening for drugs that reverse the wing phenotype of the mutated kRAS/kRAS x MS1096 fly",
  "assay_type": "in vivo, Drosophila",
  "conditions": "for rescue from the crumpled/kringled wing phenotype: 10 μM test article in fly food, embryos to adults, 25° C., 14 days, FIG. 8",
  "experimental": "Male mutated kRAS/kRAS flies were bred overnight with female MS1096/GAL4 flies in a fly condo^2 with a grape agar plate floor. The resulting embryos were gently dislodged from the grape agar plate using a squirt bottle containing 0.7% NaCl, 0.03% Triton X-100 In distilled water. The embryos were counted and then dissolved in a solution containing 14.4% sucrose, 0.7% NaCl and 0.05% Triton to give a concentration of 15 embryos/10 μL of solution. ^2 Sullivan W, Ashburner M, Hawley, S R, Drosophila Protocols 2000, Cold Spring Harbor Laboratory Press, pp 541-551.\nThe test article, 1-benzyl-2-phenyl-1H-benzo[d]imidazole which is a deltarasin analog with activity againsy RAS signaling,^1 was dissolved in DMSO to give a concentration of 10 mM. The deltarasin analog inhibitor was synthesized at the Tosk facility. Four μL of this solution, 100 μL of the embryo solution (150 embryos), ½ teaspoon blue fly food (North Carolina, catalogue number 173216) and 4 ml of water were combined in a vial (VWR, catalogue number 89092-720) and capped (VWR, catalogue number 89168-886). Using the recipe provided above, the final concentration of test article in the mixture was 10 μM.\nThe vials were placed in a 25° C. incubator for 14 days after which they. were examined for the percentage of flies with crumpled/kringled wings. […] The goal for screening chemicals for anti-kRAS activity is to achieve in the kRAS mutant fly the rescue from the crumpled/kringled wing phenotype achieved with the deltarasin analog.",
  "key": {"[1]": {"conditions": "flies rescued by treatment with a test article, compared with control and kRAS mutant flies"}},
  "data": [
    {"smiles": "c1ccc(Cn2c(-c3ccccc3)nc3ccccc32)cc1", "note": "[test article, 1-benzyl-2-phenyl-1H-benzo[d]imidazole]", "values": [
      {"measurement": "rescue from the crumpled/kringled wing phenotype", "result": "significantly less crumpled/kringled although still non-functional"},
      {"measurement": "rescue from the crumpled/kringled wing phenotype", "setting": "listed as deltarasin analog", "result": "rescued"},
      {"measurement": "typical appearance of wings: vein-free region (Rescued)", "setting": "compared with the same regions in kRAS mutant flies", "result": "Vein-free region is considerably"},
      {"measurement": "ability to take flight (Rescued)", "setting": "[1]", "result": "Unable to take flight"},
      {"measurement": "typical appearance of wings: position relative to fly body in idle state (Rescued)", "setting": "[1]", "result": "Wings tend to be parallel to the fly"},
      {"measurement": "typical appearance of wings: size and shape (Rescued)", "setting": "[1]", "result": "Medium, semi-flat and less crinkled"},
      {"measurement": "typical appearance of wings: transparency (Rescued)", "setting": "[1]", "result": "Slightly translucent wings"},
      {"measurement": "typical appearance of wings: wing veins (Rescued)", "setting": "[1]", "result": "Slightly aberrant wing “veins.”"}
    ]}
  ]
}
